According to patent US20240261267A1, “METHODS FOR TREATING MULTIPLE SCLEROSIS” (Vanda Pharmaceuticals Inc., priority 2021, published 2024):

Tested on: primary mouse OPCs
Assay: differentiation assay, quantitative PCR
Type: cell-based
Experimental: The effects of ponesimod, a selective S1P1 receptor agonist, and A971432, a selective S1P5 receptor agonist, on oligodendrocyte precursor cell (OPC) migration and differentiation were evaluated. Nine concentrations were tested (logarithmic dilutions ranging from 0.3 nM to 3000 nM, n=6 per concentration). Fingolimod phosphate (P-FTY720, 3000 nM, n=6) was included as a positive control, 0.1% DMSO was included (min.one/plate) as a negative control. Primary mouse OPCs were harvested on postnatal day 0 or 1 and mixed glia cultures were maintained for 14 days. Primary OPCs were then purified using the shake-off method, and used for either a migration assay, or a differentiation assay, as detailed below. To harvest primary mouse OPCs, cortices are isolated from mouse pups on postnatal day 0 or 1 and placed in ice-cold Dulbecco's Modified Eagle Medium (DMEM) (Sigma Aldrich, Overijse, BE). The cortices are homogenized and centrifuged for 5 minutes at 300 G. The supernatant is removed, and a papain solution is added for 30 minutes (125 uL DMEM solution per brain containing 20 units/ml papain and 40 μg/ml DNase, at 37 degrees). Digestion is inactivated by adding 9 ml cold DMEM. The solution is then centrifuged for 5 minutes at […]. The supernatant is carefully removed, and the pellet is resuspended in 2-5 ml culture medium (DMEM with 10% fetal calf serum (Biowest, Nuaillé, FR) and 1% pen/strep (Sigma Aldrich, Overijse, BE)). […] Cell suspension is divided over PLL (Sigma Aldrich, Overijse, BE)-coated flasks (2 brains per flask) and DMEM is added to a final volume of 10 ml. DMEM is replaced on day 4, 7, and 11. On day 7 and 11, insulin (Sigma Aldrich, Overijse, BE) is added to the medium (5μg/ml). On day 14, OPCs are separated from astrocytes by the shake-off method: flasks are placed on a shaker for 45 minutes at 75 rpm (37 degrees). The medium is then aspirated and discarded, and 10 ml fresh culture medium is added. Flasks are then returned to the shaker for 16-18 hours shaking at 280 rpm. Next, the medium is isolated, and this cell suspension is placed in a plastic petri dish and incubated for 25 minutes. The medium, which contains the OPCs, is then collected and centrifuged for 5 minutes at 300 G. Cells are then resuspended in SATO differentiation medium containing 2% horse serum, 2% B-27, 50 U/ml P/S, 2.4 μl/ml transferrin, 1.04 μl/ml L-thyroxine, 1 μl/ml putrescin, 1 μl/ml progesterone, 1 μl/ml TIT, 0.74 μl/ml sodium selenite and 0.5 μl/ml insulin (all from Sigma-Aldrich, Overijse, BE). […] After shake-off, cells are reset for their differentiation status: one hour after plating, cells are treated with platelet-derived growth factor (PDGF, 10 ng/ml, Peprotech EC Ltd, London, UK) and fibroblast growth factor (fgf, 10 ng/ml, Peprotech EC Ltd, London, UK). Twenty-four hours after plating, cells are treated again with fgf (10 ng/ml). 250,000 cells are plated onto glass coverslips in 24-well plates. Cells are treated with test compound or DMSO on day 1 (twenty-four hours after fgf treatment) and 3, and lysated on day 4. Total RNA was isolated from primary OPCs, using the RNeasy mini kit (Qiagen, Venlo, the Netherlands), according to the manufacturer's instructions. RNA concentration and quality is analyzed with a Nanodrop spectrophotometer (Isogen Life Science, Leiden, The Netherlands). RNA is reverse-transcribed using the qScript cDNA Supermix kit (Quanta, Leuven, Belgium). qPCR is performed to analyze gene expression, using the Applied Biosystems QuantStudio 3 Real-Time PCR System (Life Technologies, Gent, Belgium). The reaction mixture consists of SYBR Green master mix (Life Technologies, Carlsbad, USA), 10 μM forward and reverse primers (Integrated DNA Technologies, Leuven, Belgium), nuclease-free water and cDNA template (12.5 ng), up to a total reaction volume of 10 μl. […] All data was normalised against plate-matched negative controls.

| SMILES | MOG expression (3 nM) | Mag gene expression (3 nM) | Mbp expression (3 nM) | Mag gene expression (10 nM) | Mbp expression (10 nM) | Ng2 gene expression (10 nM) | PLP expression (10 nM) | Mag gene expression (30 nM) | Mobp expression (30 nM) | Ng2 gene expression (30 nM) | Mobp expression (100 nM) | MOG expression (300 nM) | PLP expression (300 nM) | Mag gene expression (1000 nM) | Mbp expression (1000 nM) | Mobp expression (1000 nM) | Ng2 gene expression (1000 nM) | PLP expression (1000 nM) | expression of Ng2, Plp, Mbp, Mobp, Mog, and Mag (concentration series) | changes at the gene expression level (all concentrations tested, normalised to negative controls) |
| --- | --- | --- | --- | --- | --- | --- | --- | --- | --- | --- | --- | --- | --- | --- | --- | --- | --- | --- | --- | --- |
| O=C(O)C1CN(Cc2ccc(OCc3ccc(Cl)c(Cl)c3)cc2)C1 [A97] | significant decrease | significant decrease | decrease | significant decrease | decrease | significant decrease | significant decrease | significant decrease | significant decrease | significant decrease | significant decrease | significant decrease | significant decrease | significant decrease | decrease | significant decrease | significant decrease | significant decrease | significant concentration-dependent decreases | – |
| CCC/N=C1\S/C(=C\c2ccc(OC[C@H](O)CO)c(Cl)c2)C(=O)N1c1ccccc1C [ponesimod, (R)-5-[3-chloro-4-(2,3-dihydroxy-propoxy)-benz[Z]ylidene]-2-([Z]-propylimino)-3-o-tolyl-thiazolidin-4-one] | – | – | – | – | – | – | – | – | – | – | – | – | – | – | – | – | – | – | – | No significant changes |
